Test results as given in ChEMBL document CHEMBL5724558, “Image-based profiling of drug vulnerabilities in CRC organoids” (2024).
Where “and” joins values, the source holds several entries; their conditions need not be identical. Equal values may be shown once. Square brackets hold non-standard residues; d marks the D form. Peptide text beside a SMILES is read from it. Arg(Me) = CNC(=N)NCCC[C@H](N)C(=O)O; d3Pal = N[C@H](Cc1cccnc1)C(=O)O; d4Pal = N[C@H](Cc1ccncc1)C(=O)O; azaGly = NNC(=O)O

How the values were obtained:
Assay type in all cases: functional, Homo sapiens
Parameters in all cases: dose or concentration left out as unconfirmed
[1] = test system: Colon cancer organoid; assay: (§1) Image-based profiling of donated chemical probes and chemogenomic kinase set in O21 CRC organoid. Image analysis is performed on the sum area metric, and the data were normalized to the DMSO control. After imaging the organoid viability is measured using the OneGloEX Luciferase Assay System. The normalized viability data and sum area are reported.
[2] = test system: Colon cancer organoid; assay: as §1, with “O09” for “O21”
[3] = test system: Colon cancer organoid; assay: as §1, with “O06” for “O21”

| Compound | Cell Viability ([1]; Replication number 1) | Cell Viability ([1]; Replication number 2) | Cell Viability ([2]; Replication number 1) | Cell Viability ([2]; Replication number 2) | Cell Viability ([3]; Replication number 1) | Cell Viability ([3]; Replication number 2) |
| --- | --- | --- | --- | --- | --- | --- |
| Cc1c(Oc2ccc(F)cc2)c(OC(C)C)nn1-c1ccc(C2CC2)cn1 [IPP/CNRS-A019] | 82.2152% and 84.0306% | 88.4065% and 90.7546% | 105.275% and 104.102% | 106.079% and 88.8184% | 86.662% and 99.3522% | 111.4% and 120.615% |
| COCCc1ccc(-c2c(C)nc3c(N4CCOCC4)ccnn23)cn1 [JNJ-42396302] | 87.7084% and 77.6404% | 105.989% and 98.0422% | 173.111% and 114.826% | 149.141% and 104.184% | 105.08% and 93.5817% | 103.056% and 100.227% |
| COc1nc2ccc([C@@](O)(c3ccccc3)C3CCN(C(C)=O)CC3)cc2c(Cl)c1Cc1ccc(-n2cccn2)cc1 [JNJ-54119936] | 91.3508% and 107.676% | 118.142% and 99.7424% | 195.654% and 100.967% | 202.641% and 113.341% | 95.4238% and 127.913% | 99.5018% and 98.8422% |
| CC(=O)Nc1ncc(CN2CCC[C@H](Cc3cc(C)nc(C)c3)C2)s1 [JNJ-65355394] | 79.2381% and 103.709% | 88.6271% and 113.344% | 144.44% and 104.679% | 146.748% and 114.826% | 89.0088% and 111.578% | 103.026% and 113.793% |
| CC(=O)Nc1nc(CN2CCC[C@H](Cc3cc(C)nc(C)c3)C2)cs1 [JNJ-73924149] | 83.219% and 91.2416% | 110.349% and 95.2087% | 161.492% and 89.8313% | 217.991% and 98.2452% | 110.009% and 115.731% | 115.696% and 107.702% |
| N#CN1CC[C@@H](C(=O)Nc2nc3c(s2)CN(C(=O)CN=[N+]=[N-])CC3)C1 [JYQ88] | 106.224% and 86.2132% | 132.659% and 94.3236% | 58.2871% and 66.775% | 121.196% and 102.102% | 45.8886% and 74.332% | 68.3691% and 90.3412% |
| CNC(=N)NCCC[C@H](NC(=O)[C@H](CC(C)C)NC(=O)NNC(=O)[C@H](Cc1ccccc1)NC(=O)[C@H](CO)NC(=O)[C@H](CC(N)=O)NC(=O)[C@@H](Cc1ccncc1)NC(=O)[C@H](N)Cc1ccc(O)cc1)C(=O)N[C@@H](Cc1ccccc1)C(N)=O [KISS1-305] (H-[dY][d4Pal]NSF[azaGly]L[Arg(Me)]F-NH2) | 121.353% and 98.3829% | 105.015% and 111.735% | 111.929% and 98.6727% | 102.809% and 106.608% | 103.915% and 128.337% | 108.799% and 104.471% |
| CNC(=N)NCCC[C@H](NC(=O)[C@H](CC(C)C)NC(=O)NNC(=O)[C@H](Cc1ccccc1)NC(=O)[C@H](CO)NC(=O)[C@H](CC(N)=O)NC(=O)[C@@H](Cc1cccnc1)NC(=O)[C@H](N)Cc1ccc(O)cc1)C(=O)NCC(N)=O [KISS1-543] (H-[dY][d3Pal]NSF[azaGly]L[Arg(Me)]G-NH2) | 119.966% and 118.758% | 94.392% and 98.4694% | 107.101% and 81.2318% | 83.0393% and 106.024% | 118.716% and 117.33% | 90.7753% and 88.3624% |
| C[C@]1(O)C[C@@H](c2nc(-c3ccc4ccc(-c5ccccc5)nc4c3)c3c(N)nccn32)C1 [LINSITINIB] | 65.7988% and 93.6585% | 45.8203% and 78.3015% | 48.5771% and 41.3901% | 29.8323% and 45.6217% | 20.2503% and 50.5216% | 16.9529% and 40.5141% |
| O=C(NOC[C@H](O)CO)c1ccc(F)c(F)c1Nc1ccc(I)cc1F [MIRDAMETINIB] | 22.725% and 32.892% | 19.7018% and 35.9842% | 6.019% and 17.678% | 3.596% and 12.9307% | 3.1671% and 12.2187% | 2.358% and 7.568% |
| CN([C@@H]1CCc2c(CC(=O)O)c3ccccc3n2C1)S(=O)(=O)c1ccc(F)cc1 [MK-7246] | 86.5772% and 112.354% | 98.7828% and 96.4286% | 131.189% and 119.936% | 71.8556% and 75.9401% | 103.187% and 97.4239% | 129.375% and 117.264% |
| C[C@@H]1CN(c2cc(-c3nn(C)c4ccc(OC5(C)CC5)cc34)ncn2)C[C@H](C)O1 [MLi-2-NC] | 92.869% and 94.89% | 95.8024% and 129.082% | 104.615% and 76.2145% | 63.1554% and 89.3757% | 109.32% and 103.981% | 134.588% and 115.132% |
